The structures appear in SMILES notation. Values after ≈ are worked out from the molar mass of the structure shown. Where two headings read alike, the source gives them in different places. Where only a bound is given, the exact number is not on record here.

The test system of assay [1] is Staphylococcus aureus V41. In words: MIC, standard agar-dilution assay, Staphylococcus aureus V41. The class given is cell-based. The following applies: Staphylococcus aureus, V41.
The test system of assay [2] is Streptococcus pyogenes C203. Kind of assay: In vivo protection of mice experimentally infected with S. pyogenes C203. Particulars: Streptococcus pyogenes. On the procedure: The C-20 modified derivatives of this invention have shown in vivo antimicrobial activity against experimentally-induced infections in laboratory animals. When two doses of test compound were administered to mice experimentally infected with S. pyogenes C203, the activity observed was measured as an ED50 value [effective dose in mg/kg to protect 50% of the test animals: see Warren Wick, et al., J. Bacteriol. 81, 233-235 (1961)].

The subject of assay [3] is Pasteurella hemolytica 22C. Kind of assay: MIC, broth-dilution microtiter test, Pasteurella hemolytica 22C. Type of assay: cell-based. Particulars: Pasteurella hemolytica 22C; broth-dilution microtiter; read-out: MIC. An excerpt:
(§1) The MIC's in Table X were obtained using conventional broth-dilution microtiter tests.

In assay [4] the test system is Staphylococcus aureus X1.1. Kind of assay: MIC, standard agar-dilution assay, Staphylococcus aureus X1.1. Type of assay: cell-based.
In a further assay the test system is Staphylococcus aureus. Kind of assay: MIC, broth-dilution microtiter test, Staphylococcus aureus. The class given is cell-based.
From the text: as §1

Assay [5] has as its system Pasteurella multocida 17E. In words: MIC, broth-dilution microtiter test, Pasteurella multocida 17E. The class given is cell-based. Particulars: Pasteurella multocida 17E; bovine isolate; broth-dilution microtiter; read-out: MIC.
From the text: as §1

For the next assay, the system named is Mycoplasma gallisepticum. Kind of assay: MIC, broth-dilution microtiter test, Mycoplasma gallisepticum. Type of assay: cell-based. Particulars: Mycoplasmoides gallisepticum.
From the text: as §1

In another assay the test system is Pasteurella multocida. Kind of assay: Subcutaneous treatment of Pasteurella multocida-infected chicks. Type of assay: in vivo, one-day-old chicks. Particulars: 30 mg/kg × 2, 1 and 4 hours post-challenge. The procedure: Many of the C-20 modified derivatives of this invention have also shown in vivo antibacterial activity against infections induced by gram-negative bacteria. Tables XII and XIII summarize the results of tests in which illustrative compounds were evaluated against Pasteurella infection in one-day-old chicks. The compounds were administered parenterally or orally after challenge of the chicks with Pasteurella multocida (0.1 ml of a 10^-4 dilution of a twenty-hour tryptose broth culture of an avian P. multocida given subcutaneously). In these tests, unless indicated otherwise, all non-medicated infected chicks died within 24 hours of Pasteurella challenge. In the tests summarized in Table XII the compounds were administered by subcutaneous injection at a dosage of 30 mg/kg, 1 and 4 hours post-challenge of the chicks with P. multocida. In the test summarized in Table XIII the compounds were administered by gavage at 1 and 5 hours post-challenge of the chicks with P. multocida.

In assay [6] the test system is Staphylococcus epidermidis EPI1. In words: MIC, standard agar-dilution assay, Staphylococcus epidermidis EPI1. The class given is cell-based.
Assay [7] concerns Staphylococcus aureus X400. Kind of assay: MIC, standard agar-dilution assay, Staphylococcus aureus X400. The class given is cell-based.
In assay [8] the test system is Haemophilus influenzae R252. Kind of assay: MIC, standard agar-dilution assay, Haemophilus influenzae R252. Type of assay: cell-based. Particulars: Haemophilus influenzae R252; ampicillin-resistant strain; read-out: MIC.
The next assay concerns Streptococcus Group 9960. In words: MIC, standard agar-dilution assay, Streptococcus Group 9960. Type of assay: cell-based. Particulars: GROUP9960.
For assay [9], the system named is Streptococcus pneumoniae Park I. Kind of assay: microbe, parasite or virus in culture. Particulars: Streptococcus pneumoniae Park I; agar dilution; read-out: MIC. Type of assay: cell-based.
Assay [10] has as its system Pasteurella multocida 60A. Kind of assay: MIC, broth-dilution microtiter test, Pasteurella multocida 60A. Type of assay: cell-based. Particulars: Pasteurella multocida 60A; avian isolate; broth-dilution microtiter; read-out: MIC.
From the text: as §1

Assay [11] deals with Staphylococcus aureus S13E. Kind of assay: MIC, standard agar-dilution assay, Staphylococcus aureus S13E. The class given is cell-based. Particulars: Staphylococcus aureus, S13E.
For assay [12], the system named is Haemophilus influenzae Holt. In words: MIC, standard agar-dilution assay, Haemophilus influenzae Holt. The class given is cell-based. Particulars: Haemophilus influenzae Holt; ampicillin-sensitive strain; read-out: MIC.
Assay [13] deals with Staphylococcus epidermidis EPI2. In words: MIC, standard agar-dilution assay, Staphylococcus epidermidis EPI2. The class given is cell-based. The following applies: Staphylococcus epidermidis, EPI2.
Assay [14] relates to Streptococcus Group D X66. In words: MIC, standard agar-dilution assay, Streptococcus Group D X66. The class given is cell-based. The following applies: Streptococcus Group D X66; agar dilution; read-out: MIC. On the technique in general: In agar dilution the substance is mixed into plates at graded concentrations.
Assay [15] has as its system Streptococcus pyogenes C203. In words: MIC, standard agar-dilution assay, Streptococcus pyogenes C203. Type of assay: cell-based.
The test system of a further assay is Mycoplasma hyorhinis. In words: MIC, broth-dilution microtiter test, Mycoplasma hyorhinis. Type of assay: cell-based.
From the text: as §1

Another assay concerns Streptococcus bovis 80. Kind of assay: MIC, broth-dilution microtiter test, Streptococcus bovis 80. The following applies: Streptococcus equinus. The class given is cell-based.
From the text: as §1

The subject of a further assay is Mycoplasma hyopneumoniae. Kind of assay: MIC, broth-dilution microtiter test, Mycoplasma hyopneumoniae. Type of assay: cell-based. The following applies: Mesomycoplasma hyopneumoniae.
From the text: as §1

The subject of another assay is Mycoplasma synoviae. Kind of assay: MIC, broth-dilution microtiter test, Mycoplasma synoviae. The class given is cell-based. The following applies: Mycoplasmopsis synoviae.
From the text: as §1

Setting [16] is: C203, sc, mice, subcutaneous, doses given 1 and 4 hours post-infection, read-out: ED50, Subcutaneous.

As for `CCC1OC(=O)CC(O)C(C)C(OC2OC(C)C(O)C(N(C)C)C2O)C(CCOC(=O)c2nn(CC)c3cc4c(cc3c2=O)OCO4)CC(C)C(=O)C=CC(C)=CC1COC1OC(C)C(O)C(OC)C1OC` (centres unmarked) [Compound 27, 20-DH-20-O-Cinoxacinyldesmycosin], the MIC came to 4 µg/mL (≈ 3.93 µM) in assay [1]; 50 µg/mL (≈ 49.1 µM) in assay [3]; 2 µg/mL (≈ 1.96 µM) in assay [4] (Staphylococcus aureus X1.1, agar dilution, read-out: MIC); 3.12 µg/mL (≈ 3.06 µM) in the assay on Staphylococcus aureus (broth-dilution microtiter, read-out: MIC); 25 µg/mL (≈ 24.6 µM) in [5]; 1.56 µg/mL (≈ 1.53 µM) in the assay with Mycoplasma gallisepticum. Further, the MIC in [6] (Staphylococcus epidermidis EPI1, agar dilution, read-out: MIC) amounted to 1 µg/mL (≈ 0.982 µM); in assay [7] (Staphylococcus aureus, X400) it was 8 µg/mL (≈ 7.86 µM); in assay [8], 32 µg/mL (≈ 31.4 µM); in the assay on Streptococcus Group 9960 it was 8 µg/mL (≈ 7.86 µM); in assay [9] it was 0.12 µg/mL (≈ 0.118 µM); in assay [10], 25 µg/mL (≈ 24.6 µM). Also, the MIC is 4 µg/mL (≈ 3.93 µM) in assay [11]; 32 µg/mL (≈ 31.4 µM) in [12]; 4 µg/mL (≈ 3.93 µM) in assay [13]; 4 µg/mL (≈ 3.93 µM) in [14]; 0.12 µg/mL (≈ 0.118 µM) in [15] (Streptococcus pyogenes C203, agar dilution, read-out: MIC); 6.25 µg/mL (≈ 6.14 µM) with Mycoplasma hyorhinis (Mycoplasma hyorhinis, broth-dilution microtiter, read-out: MIC). The MIC with Streptococcus bovis 80 (Streptococcus bovis 80, broth-dilution microtiter, read-out: MIC) was found to be 0.78 µg/mL (≈ 0.766 µM). Moreover, the 50% effective dose (ED50) – broadly, the dose that gives a 50% effect, or the effect in half of the subjects – was more than 100 mg/kg in [2] (C203, po, read-out: ED50, Oral) and less than 1.5 mg/kg in [2] (setting [16]). Further, in the assay with Pasteurella multocida, the “Number of Deaths/Number Treated” value is reported as 6/10.

Turning to `CCC1OC(=O)CC(O)C(C)C(OC2OC(C)C(O)C(N(C)C)C2O)C(CCOC)CC(C)C(=O)C=CC(C)=CC1COC1OC(C)C(O)C(OC)C1OC` (centres unmarked) [Compound 30, 20-DH-20-O-Methyldesmycosin], the MIC stood at 0.5 µg/mL (≈ 0.635 µM) in [1]; 25 µg/mL (≈ 31.7 µM) in assay [3]; 0.5 µg/mL (≈ 0.635 µM) in assay [4] (Staphylococcus aureus, X1.1); 12.5 µg/mL (≈ 15.9 µM) in the assay with Mycoplasma hyopneumoniae; 0.78 µg/mL (≈ 0.99 µM) in the assay with Staphylococcus aureus; 25 µg/mL (≈ 31.7 µM) in assay [5]. In addition, the MIC is 0.39 µg/mL (≈ 0.495 µM) in the assay on Mycoplasma gallisepticum; 0.5 µg/mL (≈ 0.635 µM) in assay [6] (Staphylococcus epidermidis, EPI1); 1 µg/mL (≈ 1.27 µM) in assay [7] (Staphylococcus aureus X400, methicillin-resistant strain, agar dilution, read-out: MIC); 16 µg/mL (≈ 20.3 µM) in the assay with Streptococcus Group 9960 (Streptococcus Group 9960, agar dilution, read-out: MIC); 4 µg/mL (≈ 5.08 µM) in assay [9]; 25 µg/mL (≈ 31.7 µM) in assay [10]. Further, the MIC in assay [11] was determined as 0.5 µg/mL (≈ 0.635 µM); in the assay on Mycoplasma synoviae it was 0.39 µg/mL (≈ 0.495 µM); in assay [13] it was 0.5 µg/mL (≈ 0.635 µM); in [14], 16 µg/mL (≈ 20.3 µM); in [15] (Streptococcus pyogenes, C203), 0.5 µg/mL (≈ 0.635 µM); against Mycoplasma hyorhinis (Mycoplasma) it was 50 µg/mL (≈ 63.5 µM). This molecule returned an MIC against Streptococcus bovis 80 (80) of 12.5 µg/mL (≈ 15.9 µM). Moreover, the 50% effective dose (ED50) in [2] (setting [16]) was more than 6.3 mg/kg; in assay [2] (C203, mice, oral, doses given 1 and 4 hours post-infection, read-out: ED50, Oral), 25 mg/kg. Also, the “Number of Deaths/Number Treated” value in the assay on Pasteurella multocida is on record as 10/10.

For the origin of these results see patent US4443436A, “C-20-Modified macrolide derivatives of the macrolide antibiotics tylosin, desmycosin, macrocin, and lactenocin” (Eli Lilly and Company, priority 1982, dated 1984).
